Results taken from PMC8453901, “GLPG1205, a GPR84 Modulator: Safety, Pharmacokinetics, and Pharmacodynamics in Healthy Subjects” (Clinical Pharmacology in Drug Development, 2021).
Like-named read-outs stand apart in the source and are kept apart here.

What was measured:
[1] = design: method as in PMID 32902984; conditions: monkeys, up to 30 mg/kg/d; cited from earlier work
CYP2C8 = system: CYP2C8; design: method as in data on file at Galapagos; conditions: in vitro; ref data on file at Galapagos; cited from earlier work
[2] = Study 1 SAD part: plasma pharmacokinetics after single oral doses; type: in vivo, human; conditions: for half-life / Tmax / Cmax / AUC(0-inf) / AUC / concentration at 24 h: male, human, plasma, oral; for AUC: read-out: AUC0‐24h; for concentration at 24 h: read-out: C24h
Description: GLPG1205 or matching placebo were administered as an oral nanosuspension in the morning in a fed condition as an outpatient. For both the single ascending doses (SADs) and multiple ascending doses (MADs) parts of the study, subjects attended a screening visit (21 to 2 days before first study drug administration) and a follow‐up visit (7 to 10 days after the last dose).
The SAD part of the study comprised 16 healthy male subjects in 2 alternating cohorts (A and B, n = 8 each). Cohort A received GLPG1205 10, 90, 400, and 800 mg or matching placebo, and cohort B received GLPG1205 30, 200, and 600 mg or matching placebo. Subjects were randomly assigned to receive GLPG1205 or matching placebo in a 3:1 ratio once at the beginning of the study. In addition, subjects in cohorts A and B were randomized to a treatment sequence. […] An interval of at least 3 days was enforced between 2 dose levels (between cohort A and B). Subjects were kept in‐house from the evening of day –1 to ≈26 hours after dosing (morning of day 2).
In the SAD part of study 1, blood samples (2 mL) for PK assessments were obtained before dosing and at multiple time points on the day of study drug administration (before dosing and 0.5, 1, 2, 4, 6, 8, and 12 hours after dosing) and at 24, 48, and 72 hours after dosing. The predose sample for the next dose level was also used in PK analysis (168 hours after dosing). […] In the MAD part of study 1, blood samples (2 mL) were obtained on days 1, 2, 4, 5, 6, 8, 10, 12, 14, 15, 16, 17, and 18 and at follow‐up (approximately 7 to 10 days after the last dose). These PK blood samples were taken after dosing (1, 2, 4, 6, 8, 12, and 24 hours) on day 1; before dosing on days 4, 6, 8, and 10; and after dosing (1, 2, 4, 6, 8, 12, 24, 72, and 96 hours) on day 14. The following additional PK blood samples were also taken: cohort C, before dosing on day 5; and cohorts D and E, before dosing on day 12. Urine samples were obtained from fractions collected over 6‐ or 12‐hour periods after dosing on days –1, 1, 2, 13, 14, and 15; samples obtained on days –1 and 13 were for cytochrome P450 (CYP) induction analysis only. In study 2, blood samples (2 mL) were obtained on days 1, 2, 5, 7, 10, 14, 15, 17, and 20 and at follow‐up (approximately 21 days after end of study medication administration). Blood samples were taken before dosing and at 1, 2, 4, 6, 8, 12, and 24 hours after drug administration on days 1 and 14 and before dosing on other sampling days.
Blood samples were immediately chilled (ice bath), and the plasma was separated by centrifugation (4°C for 10 minutes at ≈1500 g) within 30 minutes of blood collection.
GLPG1205 plasma concentrations were determined using a validated liquid chromatography with tandem mass spectrometry method. After a protein precipitation with methanol, a chromatographic separation was performed on a Kinetex C18 column (50×3.0 mm, 2.6 μm; Phenomenex, Torrance, California) set at 40°C by using a Nexera high‐performance liquid chromatography (HPLC) system (Shimadzu, Kyoto, Japan) or an Infinity HPLC system (Agilent Technologies, Diegem, Belgium) in isocratic elution mode. A QTRAP6500, QTRAP4000, or API4000 mass spectrometer (AB Sciex, Nieuwerkerk aan den Ijssel, The Netherlands) equipped with a TurboIonSpray probe operated in the multiple reaction monitoring in positive mode was used for quantification. The calibration curves in plasma were linear over the range of 1 to 1000 ng/mL with 1/x^2 as weighting factor. The limit of quantification of the assay in the plasma samples was set at 1 ng/mL.
PK calculations were performed using Phoenix WinNonlin 6.2 (Pharsight Corporation, Palo Alto, California). […] AUC0‐inf was calculated from the area under the plasma concentration‐time curve from time 0 until the time corresponding with the last observed quantifiable concentration + Ct/λz, where Ct was the last observed quantifiable concentration and λz the first‐order terminal rate constant. […]

CYP1A2 = system: CYP1A2; design: method as in data on file at Galapagos, 8, 9; conditions: 100 mg once daily, healthy male subjects; ref data on file at Galapagos, 8, 9; cited from earlier work
[3] = single 10 mg, arithmetic mean (CV%)
[4] = single 30 mg, arithmetic mean (CV%)
[5] = single 90 mg, arithmetic mean (CV%)
[6] = single 200 mg, arithmetic mean (CV%)
[7] = single 400 mg, arithmetic mean (CV%)
[8] = single 600 mg, arithmetic mean (CV%)
[9] = single 800 mg, arithmetic mean (CV%)

O=c1nc(OC[C@@H]2COCCO2)cc2n1CCc1cc(C#CC3CC3)ccc1-2 [GLPG1205, 9‐cyclopropylethynyl‐2‐((S)‐1‐[1,4]dioxan‐2‐ylmethoxy)‐6,7‐dihydropyrimido[6,1‐a]isoquinolin‐4‐one]
dose-proportionality of exposure [1]: increased dose‐proportionally
inhibition of CYP2C8 (CYP2C8): weak inhibition
half-life ([2]; after single administration, 10 to 800 mg, read-out: arithmetic mean apparent terminal half-life (t1/2,λz) range): 30.1 to 140 h
Tmax ([2]; after single administration, 10 to 800 mg, read-out: median tmax range): 2 to 4 h
Cmax [2, 3]: 0.0942 µg/mL
AUC(0-inf) ([2]; single 10 mg, arithmetic mean (CV%), N = 3): 3.31 µg·h/mL
AUC [2, 3]: 1.33 µg·h/mL
concentration at 24 h [2, 3]: 0.0398 µg/mL
half-life ([2]; single 10 mg, arithmetic mean (CV%), read-out: t1/2,λz (converted)): 32.2 h
Cmax [2, 4]: 0.284 µg/mL
AUC(0-inf) ([2]; single 30 mg, arithmetic mean (CV%), N = 4): 11.5 µg·h/mL
half-life ([2]; single 30 mg, arithmetic mean (CV%), N = 5, read-out: t1/2,λz (converted)): 30.1 h
AUC [2, 4]: 4.47 µg·h/mL
concentration at 24 h [2, 4]: 0.144 µg/mL
Tmax ([2]; single 30 mg, median (minimum-maximum), read-out: tmax): 4 h
Cmax [2, 5]: 0.89 µg/mL
AUC(0-inf) ([2]; single 90 mg, arithmetic mean (CV%), N = 4): 52.3 µg·h/mL
AUC [2, 5]: 14.3 µg·h/mL
concentration at 24 h [2, 5]: 0.511 µg/mL
half-life ([2]; single 90 mg, arithmetic mean (CV%), read-out: t1/2,λz (converted)): 57.7 h
Tmax ([2]; single 90 mg, median (minimum-maximum), read-out: tmax): 4 h
Cmax [2, 6]: 2.2 µg/mL
AUC(0-inf) ([2]; single 200 mg, arithmetic mean (CV%), N = 4): 120 µg·h/mL
half-life ([2]; single 200 mg, arithmetic mean (CV%), N = 5, read-out: t1/2,λz (converted)): 54.3 h
AUC [2, 6]: 35.8 µg·h/mL
concentration at 24 h [2, 6]: 1.26 µg/mL
Tmax ([2]; single 200 mg, median (minimum-maximum), read-out: tmax): 3 h
Cmax [2, 7]: 3.39 µg/mL
AUC [2, 7]: 58 µg·h/mL
concentration at 24 h [2, 7]: 2.15 µg/mL
half-life ([2]; single 400 mg, arithmetic mean (CV%), read-out: t1/2,λz (converted)): 92.4 h
AUC(0-inf) ([2]; single 400 mg, arithmetic mean, N = 2): 224 µg·h/mL
Tmax ([2]; single 400 mg, median (minimum-maximum), read-out: tmax): 4 h
Cmax [2, 8]: 5.53 µg/mL
half-life ([2]; single 600 mg, arithmetic mean (CV%), N = 3, read-out: t1/2,λz (converted)): 75 h
AUC [2, 8]: 94 µg·h/mL
concentration at 24 h [2, 8]: 3.41 µg/mL
Tmax ([2]; single 600 mg, median (minimum-maximum), read-out: tmax): 4 h
Cmax [2, 9]: 7.5 µg/mL
AUC [2, 9]: 130 µg·h/mL
concentration at 24 h [2, 9]: 5 µg/mL
half-life ([2]; single 800 mg, arithmetic mean, N = 2, read-out: t1/2,λz (converted)): 140 h
Tmax ([2]; single 800 mg, median (minimum-maximum), read-out: tmax): 4 h
dose-proportionality of exposure ([2]; single doses between 10 and 800 mg): did not markedly deviate from dose‐proportionality
effect on exposure of CYP1A2 (CYP1A2): did not affect the exposure
